# From paper PMC8000919, “Validation of an LC-MS/MS Method to Quantify the New TRPC6 Inhibitor SH045 (Larixyl N-methylcarbamate) and Its Application in an Exploratory Pharmacokinetic Study in Mice” (Pharmaceuticals, 2021)
# Where two headings read alike, the source gives them in different places.
# What was measured:
# [1] = Stability in plasma QC samples under storage conditions; format: physicochemical, mice; conditions: for Stability in autosampler, Accuracy / Stability in autosampler, Mean ± SEM: extracted plasma QC samples, 6 °C; for Stability in autosampler, Accuracy / Stability in autosampler, Mean ± SEM / Freeze and thaw stability, Accuracy / Freeze and thaw stability, Mean ± SEM: 12 h; for Short-term stability, Accuracy / Short-term stability, Mean ± SEM / Freeze and thaw stability, Accuracy / Freeze and thaw stability, Mean ± SEM / Long-term stability, Accuracy / Long-term stability, Mean ± SEM: plasma QC samples; for Short-term stability, Accuracy / Short-term stability, Mean ± SEM: 25 °C, 4 h; for Freeze and thaw stability, Accuracy / Freeze and thaw stability, Mean ± SEM / Long-term stability, Accuracy / Long-term stability, Mean ± SEM: −20 °C; for Freeze and thaw stability, Accuracy / Freeze and thaw stability, Mean ± SEM: 3 cycles; for Long-term stability, Accuracy / Long-term stability, Mean ± SEM: 30 days
# Method: […] The accuracy of the mean concentration at each of the three QC levels was accepted within ±15% of nominal concentration. All stability experiments were carried out in three replicates.
# TRPC3 = system: TRPC3; parameters: method as in PMID 29522264; conditions: TRPC6 over TRPC3; cited from earlier work
# [2] = Exploratory plasma pharmacokinetics in mice after single i.p. administration, non-compartmental analysis; format: in vivo
# Method: The practicability of the validated method for SH045 quantification was verified in a first exploratory pharmacokinetic study in mice. Male C57BL/6 mice (25–30 g body weight, Charles River, Sulzfeld, Germany) were housed in groups under standard conditions, allowed access to lab chow and water ad libitum. Animal experiments were performed according to the national regulations of animal welfare and were ethically approved by the local committee on animal welfare and the local authorities. Animal experiments were performed under strict consideration of the 3R principles (replace, reduce, refine), fully complying with the ARRIVE guidelines.
# Solutions of SH045 for i.p. administration were prepared with DMSO (final concentration 0.5%) and Kolliphor® EL (5% in water). SH045 was administered i.p. as a single dose of 20 mg/kg body weight. Blood was collected from mice tail vein at 5, 15, 30, 60, 120, 180 and 360 min after administration via heparinized catheters. After centrifugation at 4000× g at 4 °C for 10 min, plasma was stored at −80 °C until analysis.
# For sample preparation, 20 µL of thawed plasma were mixed with 2 µL of IS (50 µg/mL), vortexed for 30 s, added with 178 µL ice-cold ACN and shaken vigorously for 5 min. After centrifugation at 104,000× g for 15 min, the supernatant was filtered through a 0.2 µm pore-size syringe filter (Phenex-RC 4 mm, Phenomenex, Aschaffenburg, Germany) and stored in the autosampler at 6 °C until analysis by LC-MS/MS, as mentioned above.
# The evaluation of basic pharmacokinetic parameters of SH045 (20 mg/kg, i.p.) following a single dose was performed by non-compartmental analysis using a commercially available software program Kinetica, version 5.1 (Thermo Fisher Scientific, Waltham, MA, USA). The Cmax and Tmax were obtained directly from the plasma concentration-time curve. The slope of the terminal phase of the SH045 concentration profile (ʎz) was estimated as absolute values from >4 data points using a log-linear regression analysis.
# The area under the plasma concentration-time curve (AUC) for the time (t) providing the final measurable concentration (AUClast) was calculated using the log-linear trapezoidal rule.
# The AUC0–∞ was then determined as AUClast + Clast/ʎz, where Clast is the last measurable concentration. The systemic total body clearance from plasma (CLp) was calculated as applied dose divided by AUC0–∞. MRT was calculated as AUMC0–∞/AUC0–∞, where area under the first-moment curve (AUMC) was defined as area under the curve of the product of time and the plasma drug concentration versus time from zero to infinity.
# The volume of distribution, VZ, was calculated as CLp/ʎz. Finally, the AUCextra extrapolates the AUC from the last measured time point to infinity.
# TRPC6 [3] = system: TRPC6; parameters: method as in PMID 29522264; conditions: patch-clamp recordings; read-out: IC50 to block inward currents; cited from earlier work
# TRPC6 [4] = system: TRPC6; parameters: method as in PMID 29522264; conditions: stably TRPC6-transfected HEK293 cells; read-out: IC50 to inhibit Ca2+ influx; cited from earlier work
# [5] = system: TRPC3/6 channels of rat PASMC; parameters: method as in PMID 29522264; conditions: 1-oleyl-2-acetyl-sn-glycerol (OAG)-induced; cited from earlier work
# [6] = Plasma protein binding (PPB) by ultrafiltration; format: in vitro ADME; conditions: mouse plasma
# Method: PPB of SH045 in mice plasma was determined at two concentrations, 100 and 800 ng/mL, using ultrafiltration. For that, 2 µL of working solutions of SH045 in DMSO (final concentration […]) were mixed with 298 µL blank plasma and incubated at 37 °C for 30 min. To determine the total concentration of SH045, 60 µL sample were taken out. The remaining 240 µL of spiked plasma were transferred to a centrifugal filter (Centrifugal Filter Units, 30 kDa cut-off, Millipore, County Cork, Ireland) and centrifuged at room temperature for 10 min at 1000× g. The filtrates were analyzed for the unbound SH045. The PPB was calculated as PPB (%) = (Ct − Cf)/Ct × 100, with Ct as total SH045 concentration in spiked plasma and Cf as unbound SH045 concentration in the filtrate.
# [7] = system: ischemic lungs explanted from mice; parameters: method as in PMID 29522264; conditions: ex vivo model of LIRE; cited from earlier work
# [8] = Stability in stock and working solutions; format: physicochemical; conditions: nominal 1000 ng/mL
# Method: Analytic stock solutions of SH045 and of IS (1 mg/mL each) were prepared in ACN and stored at −20 °C. Working solutions of SH045 and of IS (50 µg/mL) were freshly prepared by dilution with water/ACN 1:1 (v/v). Calibration and QC samples were prepared by addition of 2 μL SH045 working solutions and 2 μL IS solution to 18 μL of blank plasma, further processed identically to the preparation of plasma (see below). Freshly prepared calibration samples for SH045 in plasma comprised eight concentration levels analyzed in duplicates (2, 5, 10, 100, 200, 800, 1200 and 1600 ng/mL).
# The stability of SH045 and IS in stock solutions stored at −20 °C for 28 days and in working solutions stored at 4 °C for 12 h was determined comparing the analyzed with the nominal concentration and accepted when accuracy was within 15%.
# [9] = male, C57BL/6, mouse, ip, mice plasma, single dose 20 mg/kg body weight
# [10] = stock solution, −20 °C, 28 days
compound,measurement,setting,value
"C=C[C@@](C)(O)CC[C@H]1C(=C)C[C@H](OC(=O)NC)[C@H]2C(C)(C)CCC[C@]12C [SH045, (1S,4S,4aR,8aS)-4-((S)-3-Hydroxy-3-methylpent-4-en-1-yl)-4a,8,8-trimethyl-3-methylenedecahydronaphthalen-1-yl methylcarbamate]","Stability in autosampler, Accuracy",[1]; nominal 5 ng/mL,99.0%
same,"Stability in autosampler, Mean ± SEM",[1]; nominal 5 ng/mL,5.0 ± 0.2 ng/mL
same,"Stability in autosampler, Accuracy",[1]; nominal 800 ng/mL,100.8%
same,"Stability in autosampler, Mean ± SEM",[1]; nominal 800 ng/mL,807 ± 28 ng/mL
same,"Stability in autosampler, Accuracy",[1]; nominal 1200 ng/mL,104.7%
same,"Stability in autosampler, Mean ± SEM",[1]; nominal 1200 ng/mL,1256 ± 50 ng/mL
same,"Short-term stability, Accuracy",[1]; nominal 5 ng/mL,107.6%
same,"Short-term stability, Mean ± SEM",[1]; nominal 5 ng/mL,5.4 ± 0.1 ng/mL
same,"Short-term stability, Accuracy",[1]; nominal 800 ng/mL,101.9%
same,"Short-term stability, Mean ± SEM",[1]; nominal 800 ng/mL,816 ± 2 ng/mL
same,"Short-term stability, Accuracy",[1]; nominal 1200 ng/mL,98.8%
same,"Short-term stability, Mean ± SEM",[1]; nominal 1200 ng/mL,1186 ± 36 ng/mL
same,"Freeze and thaw stability, Accuracy",[1]; nominal 5 ng/mL,97.2%
same,"Freeze and thaw stability, Mean ± SEM",[1]; nominal 5 ng/mL,4.9 ± 0.2 ng/mL
same,"Freeze and thaw stability, Accuracy",[1]; nominal 800 ng/mL,90.1%
same,"Freeze and thaw stability, Mean ± SEM",[1]; nominal 800 ng/mL,721 ± 8 ng/mL
same,"Freeze and thaw stability, Accuracy",[1]; nominal 1200 ng/mL,90.2%
same,"Freeze and thaw stability, Mean ± SEM",[1]; nominal 1200 ng/mL,1083 ± 41 ng/mL
same,"Long-term stability, Accuracy",[1]; nominal 5 ng/mL,107.3%
same,"Long-term stability, Mean ± SEM",[1]; nominal 5 ng/mL,5.4 ± 0.3 ng/mL
same,"Long-term stability, Accuracy",[1]; nominal 800 ng/mL,95.4%
same,"Long-term stability, Mean ± SEM",[1]; nominal 800 ng/mL,763 ± 9 ng/mL
same,"Long-term stability, Accuracy",[1]; nominal 1200 ng/mL,99.9%
same,"Long-term stability, Mean ± SEM",[1]; nominal 1200 ng/mL,1199 ± 29 ng/mL
same,subtype selectivity over TRPC3,TRPC3,13 fold
same,plasma concentration relative to IC50 for Ca2+ influx,[2]; five hours after administration of 20 mg/kg,at least two-fold higher
same,AUC(0-inf),[2]; [9],1470 ng·h/mL
same,AUC(0-t),[2]; [9],1410 ng·h/mL
same,Cmax,[2]; [9],756 ng/mL
same,MRT,[2]; [9],1.9 h
same,Tmax,[2]; [9],0.5 h
same,half-life,"[2]; male, C57BL/6, mouse, plasma, ip, 20 mg/kg, mice plasma, single dose 20 mg/kg body weight",1.3 h
same,T1/2,"[2]; mice plasma, single dose 20 mg/kg body weight, i.p., 20 mg/kg",1.31 h
same,% AUC (AUCextra as percent),"[2]; mice plasma, single dose 20 mg/kg i.p., extrapolated part of AUC",4.3%
same,IC50,TRPC6 [3],5.8 nM
same,IC50,TRPC6 [4],63 nM
same,effect on OAG-induced Ca2+ entry,[5],inhibited
same,"fraction unbound at 30 min, 100 ng/mL","[6]; 100 ng/mL SH045, ultrafiltration",0.022
same,"fraction unbound at 30 min, 800 ng/mL","[6]; 800 ng/mL SH045, ultrafiltration",0.003
same,edema formation after reperfusion,[7],reduced edema formation
same,"Stability, Accuracy",[8]; [10],106.6%
same,"Stability, Mean ± SEM",[8]; [10],1066 ± 9 ng/mL
same,"Stability, Accuracy","[8]; working solution, 4 °C, 12 h",103.7%
same,"Stability, Mean ± SEM","[8]; working solution, 4 °C, 12 h",1037 ± 10 ng/mL
